According to ChEMBL document CHEMBL3886153, “HIV protease inhibitors” (2015):

Molecular target: Gag-Pol polyprotein (Human immunodeficiency virus type 1 group M subtype B (isolate HXB2)(HIV-1), UniProt P04585)
Assay: Inhibition Assay: The inhibition of WT HIV-1 protease was studied using the reaction of the protease (expressed in Eschericia coli) with a peptide substrate [Val-Ser-Gln-Asn-(betanaphthyl)Ala-Pro-Ile-Val (SEQ ID NO:1)]. Compounds were tested using Procedure A. In Procedure A, the test compound was first preincubated with the enzyme in assay buffer (50 mM sodium acetate, pH 5.5, 100 mM NaCl, and 0.1% BSA) for 30 minutes at room temperature. Substrate was then added to 400 micromolar in a total volume of 80 microliters containing 10 picomolar HIV-1 protease and the reaction was incubated for 1 hour at 30° C. The reaction was quenched with the addition of 120 microliters of 10% phosphoric acid. The product formation was determined after separation of product and substrate on a Zorbax Eclipse XDB-C18 column (Agilent Technologies, Santa Clara, Calif.) connected to an Agilent 1100 high performance liquid chromatography system with fluorescence detection (excitation 270 nanometer and emission 330 nanometer).

SMILES	IC50 [nM]
COC(=O)N[C@H](C(=O)N[C@H](c1ccc(C(CO)N(CCC(C)(C)C)S(=O)(=O)c2ccc(OC)nc2)s1)C(F)(F)F)C(c1ccccc1)c1ccccc1 (stereo partly specified)	27.5
COC(=O)N[C@H](C(=O)NCc1ccc([C@@H](CO)N(CC2CC(F)(F)C2)S(=O)(=O)c2ccc(C(C)O)cc2)s1)C(c1ccccc1)c1ccccc1 (stereo partly specified)	8.97
COC(=O)N[C@H](C(=O)NCc1ccc([C@@H](CO)N(CC2CC(F)(F)C2)S(=O)(=O)c2ccc(C(C)=O)cc2)s1)C(c1ccccc1)c1ccccc1	11.9
COC(=O)N[C@H](C(=O)N[C@H](c1ccc([C@@H](CO)N(CCC(C)(C)C)S(=O)(=O)c2ccc(=O)[nH]c2)s1)C(F)(F)F)C(c1ccccc1)c1ccccc1	9.42
COC(=O)N[C@H](C(=O)N[C@H](c1ccc([C@@H](CO)N(C(C)C)S(=O)(=O)c2ccc(N)cc2)s1)C(F)(F)F)[C@@H](c1ccccc1)c1c[nH]c2ncccc12	3.96
COC(=O)N[C@H](C(=O)N[C@H](c1ccc([C@@H](CO)N(C(C)C)S(=O)(=O)c2ccc(N)c(Cl)c2)s1)C(F)(F)F)C(c1ccccc1)c1ccccc1	92.5
COC(=O)N[C@H](C(=O)N[C@H](c1ccc([C@@H](CO)N(C(C)C)S(=O)(=O)c2cc(N)cs2)s1)C(F)(F)F)C(c1ccccc1)c1ccccc1	21.7
COC(=O)N[C@H](C(=O)N[C@H](c1ccc([C@@H](CO)N(CCC(C)(C)C)S(=O)(=O)c2cn3ncnc3cn2)s1)C(F)(F)F)C(c1ccccc1)c1ccccc1	3.59
COC(=O)N[C@H](C(=O)N[C@H](c1ccc([C@@H](CO)N(C(C)C)S(=O)(=O)c2ccc(Cl)s2)s1)C(F)(F)F)C(c1ccccc1)c1ccccc1	184
COC(=O)N[C@H](C(=O)N[C@H](c1ccc([C@@H](CO)N(CCC(C)(C)C)S(=O)(=O)C2=CC3NC=C(Cl)C3C=C2)s1)C(F)(F)F)C(c1ccccc1)c1ccccc1 (stereo partly specified)	43.8
COC(=O)N[C@H](C(=O)NCc1ccc([C@@H](CO)N(CC2CC(F)(F)C2)S(=O)(=O)c2ccc(C(O)C(F)(F)F)cc2)s1)C(c1ccccc1)c1ccccc1 (stereo partly specified)	26.9
